What was measured:
CRBN = CRBN (Homo sapiens, UniProt Q96SW2); assay: Surface plasmon resonance with immobilized His-tagged cereblon; conditions: SPR; average of at least 2 experiments; N.B - no binding observed
Description: With unprecedented access to novel analogues of ImiDs, the structure-activity relationships with respect to Cereblon binding and the degradation of Aiolos (IKZF3) and CK1αwe were explored. To assess binding of ImiD analogues to Cereblon directly, an SPR assay with His-tagged Cereblon immobilized was employed. Dose-response curves were measured for each analogue and Kd values calculated.
Surface Plasmon Resonance
The surface plasmon resonance (SPR) experiments were conducted on a S200 Biacore (GE Healthcare). His-tagged cereblon protein was immobilized on a carboxymethylated dextran surface with nitriloacetic acid (NTA), taking advantage of NTA/Ni2+ chelation. The prepared surface equilibrated overnight in running buffer (10 mM HEPES buffer @ pH 7.4, 150 mM NaCl, 0.4 mg/mL BSA, 0.005% P20, 2% DMSO).
All compounds were prepared in 100% DMSO stock plates with a top concentration of 5 mM in a 3× serial dilution. Compounds were transferred from the stock plate to the assay plate and diluted into running buffer containing no DMSO.
Data analysis was performed in S200 Bia-evaluation software (GE Healthcare). Blanks were subtracted and data was corrected for DMSO using a standard DMSO curve.

[1] = test system: BL cell lines (NAMALWA, Ramos, CA-46, Daudi); assay: Proliferation assay (CellTiter-Glo) in BL cell lines; type: cell-based
Description: To assess the effect of the inhibitors on proliferation, cells (50,000/100 μl) were seeded in 96-well tissue culture plates followed by addition of compound at the indicated concentration. After 72 hours, 100 μL per well of reconstituted CellTiter-Glo (CTG) reagent (#G7572 from Promega) was added and read on Cytation 3 imaging reader from BioTek. Relative cell growth was determined by comparing assay readings of treated cells with control DMSO treated cells.
Specifically, NAMALWA, Ramos, CA-46, and Daudi cell lines were seeded at 50,000 cells/100 μl in 96-well plates. […] Following treatment, the relative proliferation of the samples was determined by CTG assay 72 hours following treatment.
Cells were re-seeded in fresh medium and incubated without any compound for 0 hr, 24.0 hr, and 48.0 hr. In a parallel control experiment, cells were treated in the same manner, except DMSO was used in place of inhibitor. Following treatment, the relative proliferation of the samples was determined by CTG assay.
In a parallel control experiment, cells were treated in the same manner, except DMSO was used in place of inhibitor. Following treatment, the relative proliferation of the samples was determined by CTG assay.
In a parallel experiment, cells were treated in the same manner, except DMSO was used in place of pomalidomide.

PARP = PARP cleavage immunoblot in BL cells; type: cell-based; conditions: 48 hours; A825 0.1 uM, JQ1 and OTX15 up to 10.0 μM; Ramos cells
Description: (§1) Cultured cells were collected in lysis buffer containing 40 mM HEPES (pH 7.4), 140 mM NaCl, 2.5 mM EDTA, 1% NP-40, 0.1% SDS and protease inhibitor cocktail. After 10 minutes of centrifugation (14000 rpm), supernatant was collected for protein concentration determination by BCA method and subjected for immunoblotting by standard protocol. Western blot results were visualized using Bio-Rad Clarity ECL Western Blotting Substrate on Bio-Rad ChemiDoc™ MP imaging system.
Lysates were collected and analyzed by immunoblot for PARP cleavage with actin as loading control.

caspase 3/7 = assay: Caspase 3/7-Glow assay in BL cell lines; type: cell-based; conditions: 24 hours, A825 0.1 μM, JQ1 1.0 μM, OTX015 1.0 μM
c-Myc = assay: Western blot analysis of c-Myc in BL cell lines; type: cell-based; conditions: for c-Myc protein level (immunoblot): overnight
Description: as §1
A separate set of cells were treated in the same manner, except that DMSO was used in place of the inhibitor. Following treatment, cell lysates were collected and analyzed by immunoblot for c-Myc and Actin.
Cells were re-seeded and incubated without inhibitor for 0 hr, 0.5 hr, 1.0 hr, 2.0 hr, 3.0 hr, 4.0 hr, and 6.0 hr. Cell lysates were then collected at the various time points and analyzed by immunoblot for c-Myc and Actin. In a parallel control experiment, NAMALWA cells were treated in the same manner, except DMSO was used in place of JQ1.
After treatment, the cells were either lysed (to evaluate the suppression of c-Myc by the inhibitors) or washed to remove the inhibitor, re-seeded, and incubated without inhibitor for 4.0 hours (to evaluate the reversibility of c-Myc suppression). Cell lysates were collected and analyzed by immunoblot for c-Myc and Actin.
Following treatment, cell lysates were collected and analyzed by immunoblot for BRD4, c-Myc and Actin.
(§2) Cells were re-seeded in fresh medium and incubated without any compound for 0 hr, 2.0 hr, 4.0 hr, 6.0 hr, and 24.0 hr. In a parallel control experiment, cells were treated in the same manner, except DMSO was used in place of inhibitor. Lysates were collected and analyzed by immunoblot for BRD4, c-Myc, and Actin.

SLC19A1 = assay: RT-QPCR of SLC19A1 gene expression in NAMALWA cells; type: cell-based; conditions: A825 0.1 μM 24 h, washout, 24 hours post-treatment
Description: RNA extraction was performed with Aurum™ Total RNA Mini Kit (#732-6820) from Bio-Rad. First-strand cDNA from total RNA was synthesized with High-Capacity cDNA Reverse Transcription Kit (#4368813) from Life Technologies according to manufacturer's instruction. Quantitative PCR was performed using Bio-rad SsoAdvanced™ Universal SYBR® Green Supermix (#172-5271). The following primers were used: […]
Cells were re-seeded in fresh medium and incubated without any inhibitor for 0 hr, 6.0 hr, and 24.0 hr. In a parallel control experiment, cells were treated in the same manner, except DMSO was used in place of inhibitor. At each time point, RNA was extracted from the lysates, reverse-transcribed into cDNA, and quantified by QPCR with SLC19A1 specific primers. GAPDH was also quantified by QPCR as an internal control.

BRD4 = target: T1, BRD4 (Homo sapiens, UniProt O60885); assay: Western blot analysis of BRD4 in BL cell lines; type: cell-based; conditions: pomalidomide 10 μM alone; overnight; NAMALWA and Ramos cells
T1 construct: endogenous in cells; host or cells: NAMALWA, Ramos, CA-46, DAUDI
Description: as §1
A separate set of cells were treated in the same manner, except that DMSO was used in place of the inhibitor. […] Following treatment, cell lysates were collected and analyzed by immunoblot for BRD4 and Actin.
Specifically, NAMALWA and Ramos cells were treated with 300 nM of each inhibitor for 0 hr, 0.5 hr, 1.0 hr, 2.0 hr, 4.0 hr, 7.0 hr, 24 hr, and 48.0 hr. Following treatment, cell lysates were collected and analyzed by immunoblot for BRD4 and Actin.
(§3) Following treatment, cell lysates were collected and analyzed by immunoblot for BRD4 and Actin.
as §3, §3, §3, §2

[2] = 100 nM to 1000 nM, NAMALWA cells

Chain of CRBN (Q96SW2 whole entry): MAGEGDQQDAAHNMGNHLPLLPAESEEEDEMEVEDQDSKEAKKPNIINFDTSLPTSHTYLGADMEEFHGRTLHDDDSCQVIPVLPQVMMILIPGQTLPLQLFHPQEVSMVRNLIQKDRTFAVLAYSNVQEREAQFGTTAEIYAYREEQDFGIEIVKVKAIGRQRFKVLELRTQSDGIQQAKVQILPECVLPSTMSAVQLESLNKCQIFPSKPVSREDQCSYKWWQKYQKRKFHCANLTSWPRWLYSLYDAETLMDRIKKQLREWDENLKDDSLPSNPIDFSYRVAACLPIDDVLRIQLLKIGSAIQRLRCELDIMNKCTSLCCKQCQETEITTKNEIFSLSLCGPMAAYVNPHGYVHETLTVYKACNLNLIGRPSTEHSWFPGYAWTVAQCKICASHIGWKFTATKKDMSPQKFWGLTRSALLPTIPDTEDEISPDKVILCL

## CC(C)(C)c1ccc2c(c1)C(=O)N(C1CCC(=O)NC1=O)C2=O (centres unmarked) [Compound 11]
CRBN
  Kd: 221 ± 52 nM

## O=C1CCC(N2C(=O)c3cccc4cccc(c34)C2=O)C(=O)N1 (centres unmarked) [Compound 12]
CRBN
  Kd: 111 ± 6 nM

## O=C1CCC(N2C(=O)c3ccc([N+](=O)[O-])cc3C2=O)C(=O)N1 (centres unmarked) [Compound 16]
CRBN
  Kd: > 11000 nM

## Cc1sc2c(c1C)C(c1ccc(Cl)cc1)=N[C@@H](CC(=O)Nc1ccc(OCCOCCOCCOCCNc3cccc4c3C(=O)N(C3CCC(=O)NC3=O)C4=O)cc1)c1nnc(C)n1-2 (some centres unmarked) [Compound A825]
[1]; 72 hours, all BL cell lines tested
  suppression of proliferation: more pronounced suppression of proliferation compared to JQ1 or OTX15
[1]; A825 10 nM with 10.0 μM pomalidomide, 72 hours, all cell lines tested
  anti-proliferation effect: prevented the anti-proliferation effect
[1]; A825 0.1 μM 24 h, washout, NAMALWA cells
  duration of proliferation suppression post-treatment: more than 48 hours
PARP
  apoptosis by PARP cleavage: prominent PARP cleavage
Caspase 3/7
  caspase 3/7 activity: statistically significant increase in caspase activity
c-Myc; A825 0.1 μM 24 h, washout, 24 hours post-treatment, NAMALWA cells
  c-Myc protein level after compound removal: well below the control sample
c-Myc; A825 100-1000 nM overnight, NAMALWA and Ramos cells
  c-Myc downregulation (immunoblot): much more pronounced downregulation of c-Myc compared to JQ1 and OTX-15
SLC19A1
  SLC19A1 gene expression after compound removal: greatly reduced compared to the control sample

## Cc1sc2c(c1C)C(c1ccc(Cl)cc1)=N[C@@H](CC(=O)OC(C)(C)C)c1nnc(C)n1-2 [JQ1]
PARP
  apoptosis by PARP cleavage: significantly higher dose
c-Myc; [2]
  c-Myc protein level (immunoblot): significant suppression
c-Myc; 1000 nM 24 h, washout, NAMALWA cells
  time for c-Myc protein to return to control level after inhibitor removal: ≤ 3.0 h
c-Myc; up to 3000 nM, NAMALWA cells
  c-Myc protein level (immunoblot): neither JQ1 nor OTX-15 was able to completely suppress c-Myc expression

## Cc1sc2c(c1C)C(c1ccc(Cl)cc1)=N[C@@H](CC(=O)Nc1ccc(O)cc1)c1nnc(C)n1-2 [OTX-15]
PARP
  apoptosis by PARP cleavage: significantly higher dose
c-Myc; [2]
  c-Myc protein level (immunoblot): significant suppression
c-Myc; up to 3000 nM, NAMALWA cells
  c-Myc protein level (immunoblot): neither JQ1 nor OTX-15 was able to completely suppress c-Myc expression

## Nc1cccc2c1C(=O)N(C1CCC(=O)NC1=O)C2=O (centres unmarked) [Pomalidomide, pomalidomide, reference compound]
[1]; pomalidomide alone up to 10 μM, 72 hours
  effect on BL cell proliferation: did not result in a significant effect on the proliferation
BRD4
  BRD4 protein level (immunoblot): not affected
